These molecules were tested on PCl2 cells (assay: Bt2cAMP-inductive neurite formation effect). Conditions: 0.5 mM Bt2cAMP; RPMI-1640; 0.2 μM or 2 μM; FIG. 4.
Assay type: cell-based, rat
Protocol: (§1) Using rat adrenal medullary pheochromocytoma-derived PCl2 cells obtained from Riken BioResource Research Center as a model, the L-valine solutions prepared in Preparation Examples were evaluated for the neurite formation effect and the neural differential promoting effect thereof. When acted on by Bt2cAMP (dibutyryladenosine 3′,5′-cyclic monophosphate) or NGF, the PCl2 cells are known to stop growing and to grow nerve fibers and elongate sympathetic ganglionic neuron-like dendrites. Here, L-valine was introduced into the Bt2cAMP-inductive neurite formation process and the NGF-inductive neural differentiation process to thereby evaluate the neurite formation effect and the neural differentiation promoting effect thereof, and the effect of L-valine was compared with that of L-leucine and L-isolencine.
(§2) Here, the PCl2 cells were cultivated using an RPMI-1640 medium containing 10% equine serum (inactivated), 5% bovine fetal serum (inactivated), 100 U/mL penicillin G and 100 μg/mL streptomycin, in a 5% CO2 vapor phase in an incubator at 37° C., and the resultant cells in an about 70% confluent state were peeled with a basal medium and used in the experiment. In the following, the medium having the same composition as the medium used in cultivation of the PCl2 cells is referred to as “basal medium”.
Here, for the judgement of positivity or negativity, 300 to 400 cells/well were observed.
In the same manner as in the above-mentioned preliminary experiment, a suspension of PCl2 cells was sown in a collagen-coated 96-well plate at 4.0×10^3 cells/90 μL/well, and cultivated therein in a 5% CO2 vapor phase at 37° C. for 24 hours. After the cultivation, Dulbecco PBS(−) containing 10 mM Bt2cAMP, and the L-valine solution prepared in Preparation Example 1 or Preparation Example 2 were added to each well each in an amount of 5 μL/well, and the cells were further cultivated for 24 hours. At this time, the Bt2cAMP concentration in the medium in each well was 0.5 mM.
Next, co-addition of valine and methionine to a medium was checked for the effect. In the same manner as above, Bt2cAMP was added to an RPMI-1640 medium where PCl2 cells were sown and cultivated in each well, and further, an L-valine solution, an L-methionine solution, or a solution of a mixture prepared by mixing L-valine and L-methionine at 1/1 was added thereto and the cells were further cultivated to check for the neurite formation rate. Regarding the concentration of the amino acid added to the RPMI-1640 medium, the concentration in the system using the L-valine solution or the L-methionine solution was 0.2 μM, and the concentration of L-valine and L-methionine in the system using the L-valine and L-methionine mixture solution was 0.1 μM each, totaling 0.2 μM.
`CC(C)[C@@H](N)C(=O)O` [D-valine] was tested, and the “neurite formation promoting effect compared with L-valine” value was “same neurite formation promoting effect like that of L-valine”. For `CC(=O)N[C@H](C(=O)O)C(C)C` [N-acetyl-L-valine], the “neurite formation promoting effect compared with L-valine” value was “same neurite formation promoting effect like that of L-valine”.

Same assay, conditions: 0.5 mM Bt2cAMP; RPMI-1640; amino acid concentration increased up to 200 μM
In the case of `C[C@H](N)C(=O)O` [alanine], the “change in the neurite formation ratio” value was “could not provide any significant change”. With `N=C(N)NCCC[C@H](N)C(=O)O` [arginine] the “change in the neurite formation ratio” value was “could not provide any significant change”. In the case of `NC(=O)C[C@H](N)C(=O)O` [asparagine], the “change in the neurite formation ratio” value was “could not provide any significant change”. For `N[C@@H](CC(=O)O)C(=O)O` [aspartic acid], the “change in the neurite formation ratio” value was “could not provide any significant change”. In the case of `N[C@@H](CS)C(=O)O` [cysteine], the “change in the neurite formation ratio” value was “could not provide any significant change”. `N[C@@H](CCC(=O)O)C(=O)O` [glutamic acid] was tested, and the “change in the neurite formation ratio” value was “could not provide any significant change”. With `NC(=O)CC[C@H](N)C(=O)O` [glutamine] the “change in the neurite formation ratio” value was “could not provide any significant change”. For `NCC(=O)O` [glycine], the “change in the neurite formation ratio” value was “could not provide any significant change”. In the case of `N[C@@H](Cc1c[nH]cn1)C(=O)O` [histidine], the “change in the neurite formation ratio” value was “could not provide any significant change”. With `NCCCC[C@H](N)C(=O)O` [lysine] the “change in the neurite formation ratio” value was “could not provide any significant change”. For `N[C@@H](Cc1ccccc1)C(=O)O` [phenylalanine], the “change in the neurite formation ratio” value was “could not provide any significant change”. In the case of `O=C(O)[C@@H]1CCCN1` [proline], the “change in the neurite formation ratio” value was “could not provide any significant change”. `N[C@@H](CO)C(=O)O` [serine] was tested, and the “change in the neurite formation ratio” value was “could not provide any significant change”. For `C[C@@H](O)[C@H](N)C(=O)O` [threonine], the “change in the neurite formation ratio” value was “could not provide any significant change”. `N[C@@H](Cc1c[nH]c2ccccc12)C(=O)O` [tryptophan] was tested, and the “change in the neurite formation ratio” value was “could not provide any significant change”. With `N[C@@H](Cc1ccc(O)cc1)C(=O)O` [tyrosine] the “change in the neurite formation ratio” value was “could not provide any significant change”.

Same assay, conditions: 0.5 mM Bt2cAMP; RPMI-1640; high concentration of 20 μM; FIG. 5
With `CSCC[C@@H](N)C(=O)O` [D-methionine] the “neurite formation promoting effect” value was “exhibited the neurite formation promoting effect”. For `CSCC[C@H](N)C(=O)O` [L-methionine], the “neurite formation promoting effect” value was “exhibited the neurite formation promoting effect”.

Same assay, conditions: 0.5 mM Bt2cAMP; amino acid 0.02 or 0.2 μg/mL in RPMI-1640 (FIG. 2), 0.02 μg/mL in Nutrient Mixture F-12 Ham (FIG. 3); 24 hours
For `CC[C@H](C)[C@H](N)C(=O)O` [L-isoleucine], the “neurite formation promoting effect” value was “could not be recognized”. `CC(C)C[C@H](N)C(=O)O` [L-leucine] was tested, and the “neurite formation promoting effect” value was “could not be recognized”. For `CC(C)[C@H](N)C(=O)O` [L-valine], the “neurite formation promoting effect” value was “significantly promoted”.

The molecules below were run on PCl2 cells (assay: Bt2cAMP concentration dependency of neurite formation rate (preliminary experiment)). Conditions: Bt2cAMP concentration in the medium 1.0 mM; 24 hours; FIG. 1.
Assay type: cell-based, rat
Protocol: Using rat adrenal medullary pheochromocytoma-derived PCl2 cells obtained from Riken BioResource Research Center as a model, the L-valine solutions prepared in Preparation Examples were evaluated for the neurite formation effect and the neural differential promoting effect thereof. When acted on by Bt2cAMP (dibutyryladenosine 3′,5′-cyclic monophosphate) or NGF, the PCl2 cells are known to stop growing and to grow nerve fibers and elongate sympathetic ganglionic neuron-like dendrites. Here, L-valine was introduced into the Bt2cAMP-inductive neurite formation process and the NGF-inductive neural differentiation process to thereby evaluate the neurite formation effect and the neural differentiation promoting effect thereof, and the effect of L-valine was compared with that of L-leucine and L-isolencine. Here, the PCl2 cells were cultivated using an RPMI-1640 medium containing 10% equine serum (inactivated), 5% bovine fetal serum (inactivated), 100 U/mL penicillin G and 100 μg/mL streptomycin, in a 5% CO2 vapor phase in an incubator at 37° C., and the resultant cells in an about 70% confluent state were peeled with a basal medium and used in the experiment. […] In FIG. 1, the neurite formation rate is expressed as ±SD, and SD is a standard deviation of the three experiments carried out in the same manner. […]
In the case of `CCCC(=O)Nc1ncnc2c1ncn2[C@@H]1O[C@@H]2COP(=O)(O)O[C@H]2[C@H]1OC(=O)CCC` [Bt2cAMP, dibutyryladenosine 3′,5′-cyclic monophosphate], the “neurite formation rate (maximum)” value was 19.5%.

The molecules below were run on PCl2 cells (assay: NGF-inductive neural differentiation, neurofilament immunofluorescent staining). Conditions: NGF plus L-valine (sample 1) versus NGF only (comparative sample 2); 48 hours; FIG. 7.
Assay type: cell-based, rat
Protocol: as §1, §2
A neurofilament was used as a neural differentiation marker. […]
With `CC(C)[C@H](N)C(=O)O` [L-valine] the “neurofilaments (bright spots in FITC fluorescently-stained image) versus NGF alone” value was “larger number of bright spots”.

— patent US11246849B2, “Nerve growth promoter” (LAIMU CORPORATION, priority 2017, dated 2022)
